# Measurements reported in patent EP0067897A1, “A pharmaceutical composition for use in raised intracranial pressure” (Tanabe Seiyaku Co., Ltd., priority 1981, dated 1982).
# Legend:
# [1] = system: Male SD-strain rats; assay: Effect on intracranial pressure (cerebrospinal fluid pressure in the cisterna magna) in urethane-anesthetized rats after oral administration; assay type: in vivo; conditions: 8 mg/kg orally
# Procedure: Male SD-strain rats weighing […] (each group consisiting of 5 rats) were fasted for about 20 hours, and anesthetized with urethane. 1-(4-acetamido-2-methoxyphenoxy)-3-[4-(3-fluorophenyl)piperazino]-2-propanol (free base) was administered orally to the rats at a dose of 8 mg/kg. Intracranial pressure (i.e., cerebrospinal fluid pressure in the cisterna magna) was continuously monitored via a cannula inserted in the cisterna magna. The cannula was connected to a transducer, and recordings were made on graph paper. The effect of said test compound on the intracranial pressure was estimated in terms of the increase or decrease in intracranial pressure, which was calculated in accordance with the following formula: [formula]
# [2] = Acute toxicity after oral administration; conditions: mouse, in vivo; oral administration to male mice, estimated a week after administration
# From the text: Unlike those of the hypertonic solutions of glycerol or mannitol, the therapeutic effect of the propanol derivative (I) of the present invention is not ascribable to the cerebral dehydrating effect. The propanol derivative (I) may be used for the treatment or prophylaxis of increased intracranial pressure during and after brain surgical operation. Moreover, the propanol derivative (I) may be used for improving impaired consciousness, nervous disturbance and subjective symptoms (e.g., headache, nausea, vomiting) which are attributed to the cerebral diseases such as those mentioned hereinbefore. Further, whereas it is known that cerebral edema induces an increase in intracranial pressure and increased intracranial pressure serves to cause a build-up of edema which in turn impairs cerebral circulation, the propanol derivative (I) can interrupt such vicious cycle of cerebral diseases because of its potent intracranial pressure-lowering effect and ameliorate the cerebral circulatory impairment. The toxicity of the propanol derivative (I) of the invention is low.
smiles,measurement,setting,value
COc1cc(NC(C)=O)ccc1OCC(O)CN1CCN(c2cccc(F)c2)CC1 (stereo not shown) [1-(4-acetamido-2-methoxyphenoxy)-3-[4-(3-fluorophenyl)piperazino]-2-propanol],Changes in intracranial pressure (%),"[1]; 20 minutes after administration, pre-dose pressure = 100 (70 ± 3.1 mm H2O), 5 rats",85.4%
same,Changes in intracranial pressure (%),"[1]; 60 minutes after administration, pre-dose pressure = 100",83.5%
same,Changes in intracranial pressure (%),"[1]; 120 minutes after administration, pre-dose pressure = 100",77.7%
same,Changes in intracranial pressure (%),"[1]; 180 minutes after administration, pre-dose pressure = 100",76.5%
same,Changes in intracranial pressure (%),"[1]; 240 minutes after administration, pre-dose pressure = 100",75.6%
same,Changes in intracranial pressure (%),"[1]; 300 minutes after administration, pre-dose pressure = 100",77.9%
same,LD50 at 168 h,[2],~1500 mg/kg
